PubChem BioAssay AID248 (DTP/NCI, 2004)
Inconclusive results and toxic doses are left out.

Test system: L1210 leukemia ip in BDF1 mice, survival T/C
Assay: NCI In Vivo Anticancer Drug Screen. Data for tumor model L1210 Leukemia (intraperitoneal) in B6D2F1 (BDF1) mice
Details: endpoint: mean survival time, higher = longer survival
In short: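 Transplanted-tumor mice were given test agent; controls received vehicle only. Survival readings from the two groups were divided (treated over control).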

[1] = dose: 100.0 mg/kg/injection, schedule: Q01DX001 (ip), vehicle: saline
[2] = dose: 100.0 mg/kg/injection, schedule: Q04DX003 (ip), vehicle: saline with Tween-80
[3] = dose: 100.0 mg/kg/injection, schedule: Q01DX001 (ip), vehicle: other
[4] = dose: 200.0 mg/kg/injection, schedule: Q01DX001 (ip), vehicle: other
[5] = dose: 400.0 mg/kg/injection, schedule: Q01DX001 (ip), vehicle: other

**Q.** Which results are given for C=CCCC(=O)O?
**A.** T/C (dose: 50.0 mg/kg/injection, schedule: Q01DX001 (ip), vehicle: saline with Tween-80): 96 % of control; T/C (dose: 100.0 mg/kg/injection, schedule: Q01DX001 (ip), vehicle: saline with Tween-80): 100 % of control; T/C (dose: 200.0 mg/kg/injection, schedule: Q01DX001 (ip), vehicle: saline with Tween-80): 91 % of control

**Q.** For Cc1cc(SCC(=O)O)sc1C, which T/C (dose: 100.0 mg/kg/injection, schedule: Q04DX002 (ip), vehicle: Klucel (hydroxypropylcellulose) (HPC)) is on record?
**A.** 92 % of control

**Q.** And the T/C (dose: 200.0 mg/kg/injection, schedule: Q04DX002 (ip), vehicle: Klucel (hydroxypropylcellulose) (HPC))?
**A.** 107 % of control

**Q.** And the T/C (dose: 400.0 mg/kg/injection, schedule: Q04DX002 (ip), vehicle: Klucel (hydroxypropylcellulose) (HPC))?
**A.** 107 % of control

**Q.** Which T/C (dose: 100.0 mg/kg/injection, schedule: Q01DX001 (ip), vehicle: Klucel (hydroxypropylcellulose) (HPC)) does the source give for COc1ccc(NNP(=O)(CCl)N(CCCl)CCCl)cc1 (stereo not drawn) here?
**A.** 104 % of control

**Q.** And the T/C (dose: 200.0 mg/kg/injection, schedule: Q01DX001 (ip), vehicle: Klucel (hydroxypropylcellulose) (HPC))?
**A.** 108 % of control

**Q.** What about the T/C (dose: 400.0 mg/kg/injection, schedule: Q01DX001 (ip), vehicle: Klucel (hydroxypropylcellulose) (HPC)) of the same molecule?
**A.** 108 % of control

**Q.** With O=C(CNC(=O)c1ccccc1)Nc1ccccc1 as the molecule, how does the T/C [1] read?
**A.** 105 % of control

**Q.** And the T/C (dose: 200.0 mg/kg/injection, schedule: Q01DX001 (ip), vehicle: saline)?
**A.** 97 % of control

**Q.** What about the T/C (dose: 400.0 mg/kg/injection, schedule: Q01DX001 (ip), vehicle: saline) of the same molecule?
**A.** 97 % of control

**Q.** Which results are given for OCCCCCCCCCCO?
**A.** T/C (dose: 100.0 mg/kg/injection, schedule: Q01DX009 (ip), vehicle: carboxymethylcellulose (CMC)): 104 % of control; T/C (dose: 200.0 mg/kg/injection, schedule: Q01DX009 (ip), vehicle: carboxymethylcellulose (CMC)): 106 % of control; T/C (dose: 400.0 mg/kg/injection, schedule: Q01DX009 (ip), vehicle: carboxymethylcellulose (CMC)): 98 % of control

**Q.** How did the T/C [1] turn out when c1cc2c(c3c1CC1c4cc5c(cc4CCN1C3)OCO5)OCO2 (stereo not drawn) was run?
**A.** 86 % of control

**Q.** What does the source list for COc1ccc(CN(C)N=Nc2ccc(C#N)cc2)cc1?
**A.** T/C (dose: 100.0 mg/kg/injection, schedule: Q01DX009 (ip), vehicle: saline with Tween-80): 98 % of control; T/C (dose: 200.0 mg/kg/injection, schedule: Q01DX009 (ip), vehicle: saline with Tween-80): 119 % of control; T/C (dose: 400.0 mg/kg/injection, schedule: Q01DX009 (ip), vehicle: saline with Tween-80): 124 % of control

**Q.** Which results are given for O=C(c1ccccc1)C(O)(c1ccccc1)C1CCCC/C1=N\N(c1ccccc1)c1ccccc1 (stereo not drawn)?
**A.** T/C [2]: 92 % of control; T/C (dose: 200.0 mg/kg/injection, schedule: Q04DX003 (ip), vehicle: saline with Tween-80): 96 % of control; T/C (dose: 400.0 mg/kg/injection, schedule: Q04DX003 (ip), vehicle: saline with Tween-80): 94 % of control

**Q.** Which T/C [3] does the source give for CCCCCCCCCCCCCCCNC1=C(OC)C(=O)C(NCCCCCCCCCCCCCCC)=C(OC)C1=O here?
**A.** 90 % of control

**Q.** And the T/C [4]?
**A.** 93 % of control

**Q.** What about the T/C [5] of the same molecule?
**A.** 96 % of control

**Q.** How did the T/C [3] turn out when O=C1CCN2CCCc3cccc1c32 was run?
**A.** 100 % of control

**Q.** What about the T/C [4] of the same molecule?
**A.** 97 % of control

**Q.** And the T/C [5]?
**A.** 102 % of control

**Q.** Which T/C [3] does the source give for Clc1nc(Cl)c2c(ncn2Cc2ccccc2)n1 here?
**A.** 95 % of control

**Q.** And the T/C [4]?
**A.** 104 % of control

**Q.** For ClCC(Cl)CN1CCCCC1 (stereo not drawn), which T/C [2] is on record?
**A.** 112 % of control

**Q.** For O=Cc1ccc2cc(Cl)ccc2n1, which T/C [3] is on record?
**A.** 93 % of control

**Q.** What about the T/C [4] of the same molecule?
**A.** 110 % of control

**Q.** And the T/C [5]?
**A.** 106 % of control

**Q.** Which results are given for COc1ccc(CN2CCCN(Cc3ccc(OC)cc3OC)C2c2cc([N+](=O)[O-])ccc2O)c(OC)c1?
**A.** T/C (dose: 50.0 mg/kg/injection, schedule: Q01DX001 (ip), vehicle: carboxymethylcellulose (CMC)): 107 % of control; T/C (dose: 100.0 mg/kg/injection, schedule: Q01DX001 (ip), vehicle: carboxymethylcellulose (CMC)): 98 % of control; T/C (dose: 200.0 mg/kg/injection, schedule: Q01DX001 (ip), vehicle: carboxymethylcellulose (CMC)): 101 % of control; T/C (dose: 400.0 mg/kg/injection, schedule: Q01DX001 (ip), vehicle: carboxymethylcellulose (CMC)): 98 % of control

**Q.** What does the source list for COc1ccccc1OCCOCCN(C)C1CCCCC1?
**A.** T/C (dose: 12.5 mg/kg/injection, schedule: Q01DX009 (ip), vehicle: Klucel (hydroxypropylcellulose) (HPC)): 93 % of control; T/C (dose: 25.0 mg/kg/injection, schedule: Q01DX009 (ip), vehicle: Klucel (hydroxypropylcellulose) (HPC)): 94 % of control; T/C (dose: 25.0 mg/kg/injection, schedule: Q04DX002 (ip), vehicle: Klucel (hydroxypropylcellulose) (HPC)): 102 % of control; T/C (dose: 50.0 mg/kg/injection, schedule: Q01DX009 (ip), vehicle: Klucel (hydroxypropylcellulose) (HPC)): 96 % of control; T/C (dose: 50.0 mg/kg/injection, schedule: Q04DX002 (ip), vehicle: Klucel (hydroxypropylcellulose) (HPC)): 105 % of control
